Reference: article PMC9241669, “Allantodapsone is a Pan-Inhibitor of Staphylococcus aureus Adhesion to Fibrinogen, Loricrin, and Cytokeratin 10” (Microbiology Spectrum, 2022)
Where “and” joins values, the source holds several entries; their conditions need not be identical. Identical values can stand only once.

Experiments:
Assay type in all cases: cell-based, Staphylococcus aureus
S. aureus Newman [1] = experiment: Adhesion of S. aureus Newman to GST-L2v loricrin; details: for concentration giving full inhibition of adhesion to L2v loricrin: S. aureus Newman, GST-L2v
Procedure: FIG 4 Allantodapsone inhibits S. aureus adhesion to loricrin and cytokeratin 10. Dose-response curve for adhesion of S. aureus Newman to GST-L2v loricrin (A) and CK10 (C). (B) Inhibition of recombinant ClfB N2N3 binding to immobilized GST-L2v loricrin by allantodapsone. (D) Inhibition of S. aureus Newman adhesion to GST-L2v loricrin by allantodapsone derivatives. Purified GST-L2v or CK10 were used to coat plates at 4°C overnight. Wells were washed with PBS and blocked with 1% BSA. Washed bacteria (OD600 of 1) were mixed with allantodapsone or vehicle control before being added to the wells and incubated for 2 h at 37°C. Adherent cells were washed, fixed, and stained with crystal violet, and wells further washed. The dye was dissolved in acetic acid, and the absorbance measured at 570 nm. GST-L2v was used at 20 μM in A and D. CK10 was used at 10 nM. Test compounds were incubated with bacteria at 80 μM and normalized to the DMSO vehicle control in D. For data presented in B, recombinant ClfB was incubated with allantodapsone (100 μM) or DMSO (1%) for 30 min prior to being added to wells coated with recombinant GST-L2v loricrin. Bound ClfB was detected using peroxidase-conjugated anti-His monoclonal antibody in an ELISA. The graphs shown are representative of three independent experiments. Statistics were carried out using one-way ANOVA followed by the Dunnett’s posttest using GraphPad Prism version 9.0.
(§1) Adhesion assays were carried out according to Hartford et al. ([37]). Briefly, plates were coated with 10 μg/mL fibrinogen (Calbiochem, Darmstadt, Germany) or 20 μg/mL fibronectin (Sigma-Aldrich, Ireland) for 2 h at 37°C or for 16 h at 4°C. Plates were blocked with 1% BSA at 37°C for 1 h and washed 3 times in PBS. Washed bacteria were incubated at 37°C for 2 h. Adherent bacteria were washed three times in PBS and fixed in 5–9% formaldehyde at room temperature for 30 min. Wells were washed three times in PBS and stained using 5% crystal violet for 20 min. Wells were washed three times in PBS, and the crystal violet solubilized using 5% acetic acid. Plates were read at 570 nm on a Wallac Victor2, (Shelton, CT, USA). The minimum adhesion inhibitory concentration (MAIC) was determined as the concentration inhibiting greater than 90% bacterial adhesion.

S. aureus Newman [2] = experiment: Adhesion of S. aureus Newman to immobilized fibrinogen (crystal violet)
Procedure: FIG 1 Allantodapsone inhibits S. aureus Newman adhesion to fibrinogen. Dose response curves for S. aureus Newman (A), L. lactis ClfA (B), and L. lactis ClfB (C) adhesion to fibrinogen. Fibrinogen was used to coat plates at 4°C overnight at 10 μg/mL. Wells were washed with PBS and blocked with 1% BSA. Washed bacteria (OD600 of 1) were mixed with the relevant concentration of allantodapsone or vehicle control (DMSO) for 5 min, and added to the wells, incubating for 2 h at 37°C. Adherent cells were washed, fixed, and stained with crystal violet, and wells further washed. The dye was dissolved in acetic acid and the absorbance measured at 570 nm. IC50 values were generated using GraphPad Prism 9.0 GraphPad software, San Diego, CA. Data are representative of three experiments with error presented as SEM.
FIG 2 Allantodapsone inhibits S. aureus adhesion to fibrinogen. (A) S. aureus Newman stationary phase and (B) exponential phase. (C) S. aureus SH1000 stationary phase and (D) exponential phase bacteria. Fibrinogen was used to coat plates at 4°C overnight at 10 μg/mL. Wells were washed with PBS and blocked with 1% BSA. Washed bacteria (OD600 of 1) were mixed with the relevant concentration of allantodapsone or vehicle control for 5 min, and added to the wells, incubating for 2 h at 37°C. Adherent cells were washed, fixed, and stained with crystal violet, and wells further washed. The dye was dissolved in acetic acid and the absorbance measured at 570 nm. Compounds were screened at a concentration of 70 μM and compared to their vehicle control. Statistical analysis was carried out using repeated measures ANOVA followed by multiple comparisons Dunnett’s tests using GraphPad PRISM. **, P ≤ 0.01; ***, P ≤ 0.001; ****, P ≤ 0.0001 (n = 3).
as §1
Compounds were added to the bacterial suspension prior to addition to the wells. In each experiment, vehicle controls were prepared using the same volume of vehicle for the matching test compound.

S. aureus Newman [3] = experiment: Agglutination (fibrinogen clumping) assay; details: 100 μM allantodapsone; 5 mg/mL fibrinogen; stationary phase
Procedure: V. Microbiology: Materials and Methods
The MTT toxicity assay (1) (Vybrant MTT Cell Proliferation Assay, Molecular Probes, Or, USA) was used to measure cytotoxicity. Myeloid lineage, U-937 cells (2) were grown in RPMI-1640 (Gibco) culture medium supplemented with 10% foetal calf serum, 1% L-glutamine and 1% Penicillin/Streptomycin (Gibco). U-937 cells were centrifuged and cells diluted with fresh medium containing 1.2 mM MTT solution to a concentration of (5-6 x 10^6 per mL) and incubated at 37 °C for 2 h. Cells were centrifuged and the pellet dissolved in DMSO. The absorbance was read at 490 nm using the Wallac Victor2, (Shelton, Connecticut, USA).
Platelet aggregation was performed in platelet rich plasma according to O’Brien et al.
S. aureus Newman (stationary phase) was washed and diluted to an OD600 of 2.5.
This was mixed with 10 mg/mL of fibrinogen in 1:1 ratio resulting in a final concentration 5 mg/mL fibrinogen. Fibrinogen -bacteria aggregates clump and settle at the bottom of the tube resulting in a clear solution. These were compared to the turbid bacterial suspension in buffer by visual inspection. […]
of S. aureus Newman was used as an agonist to stimulate platelet aggregation. The FcγRIIa antibody IV.3 (StemCell Technologies, London, UK) was used at a concentration of […]. […] Data was analysed by repeated measures ANOVA followed by a multiple comparison Dunnett’s test. […]

Nc1ccc(S(=O)(=O)c2ccc(NCN3C(=O)NC(=O)C(=O)C3=O)cc2)cc1 [Allantodapsone]
concentration giving full inhibition of adhesion to L2v loricrin (S. aureus Newman [1]): 40 µM | concentration giving full inhibition of adhesion to L2v loricrin (S. aureus Newman [1]; listed as allantodapsone): 16.1 µg/mL | IC50 (S. aureus Newman [1]; Staphylococcus aureus, NEWMAN, read-out: IC50, inhibition of adhesion to L2v loricrin): 9.87 µM | minimum adhesion inhibitory concentration (MAIC) (S. aureus Newman [2]; S. aureus Newman stationary phase, concentration inhibiting greater than 90% adhesion to fibrinogen): 100 μM and 40.2 μg/mL | inhibition of adhesion to fibrinogen (S. aureus Newman [2]; S. aureus Newman, stationary and exponential phase, compounds screened at 70 μM (Fig. 2)): inhibited | IC50 (S. aureus Newman [2]; Staphylococcus aureus, NEWMAN, read-out: IC50, inhibition of adhesion to fibrinogen, S. aureus Newman exponential phase): 32.8 µM | IC50 (S. aureus Newman [2]; Staphylococcus aureus, NEWMAN, read-out: IC50, inhibition of adhesion to fibrinogen, S. aureus Newman stationary phase, fibrinogen 10 μg/mL): 23 µM | IC50 (S. aureus Newman [2]; read-out: IC50, inhibition of adhesion to fibrinogen, S. aureus Newman stationary phase, fibrinogen 10 μg/mL): 21.3 µM | inhibition of clumping of bacteria in fibrinogen (S. aureus Newman [3]): did not inhibit
